Test results reported in patent EP4810040A2, “INHIBITORS OF APOL1 AND METHODS OF USING SAME” (priority 2020, dated 2022).
Read-outs that look alike come from different tables or passages of the source.

Molecular target: T1, APOL1 G1 (Homo sapiens, UniProt O14791, I384M/S342G)
T1 sequence (O14791 28-398 S342G/I384M): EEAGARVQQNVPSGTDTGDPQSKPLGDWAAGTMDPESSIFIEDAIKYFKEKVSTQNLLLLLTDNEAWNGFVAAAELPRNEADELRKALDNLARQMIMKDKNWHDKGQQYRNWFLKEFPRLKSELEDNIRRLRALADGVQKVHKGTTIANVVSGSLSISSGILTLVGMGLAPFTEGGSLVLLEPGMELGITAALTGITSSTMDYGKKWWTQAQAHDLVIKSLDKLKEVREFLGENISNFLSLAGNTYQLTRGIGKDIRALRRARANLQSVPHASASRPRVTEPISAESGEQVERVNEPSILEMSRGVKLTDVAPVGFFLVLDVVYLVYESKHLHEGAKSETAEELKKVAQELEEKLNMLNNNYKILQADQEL
Experiment: MultiTox-Fluor Multiplex Cytotoxicity Assay, tet-inducible APOL1 G1 T-REx-HEK293 cells
Type: cell-based
Parameters: expressed in transfected cells; host or cells: T-REx HEK293, clone G1 DC3.25 (pAAVS1-Puro-APOL1 G1)
Details: for Emax: read-out: Multi-Tox Assay Max Activity (%)
In short: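 Over 24 h at 37 °C, compounds (10-point 3-fold series from 10 µM, duplicate) were co-incubated with 50 ng/mL tetracycline inducing APOL1 G1 in T-REx-HEK293 cells. Viability/cytotoxicity measured by MultiTox-Fluor as dead-to-live fluorescence ratio, expressed as percent of control between uninduced and induced wells and fitted.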

[1] = Multi-Tox Assay, APOL1 variant (G0/G1/G2) not stated in Table 46, read-out: Multi-Tox Assay IC90
[2] = HEK293, Multi-Tox Assay, APOL1 variant (G0/G1/G2) of the HEK293 cells not given, read-out: Multi-Tox Assay IC90
[3] = Multi-Tox Assay, APOL1 variant not given

SMILES: C[C@H]1C[C@@]2(C[C@@H](C3(CO)CC3)N1)OCCc1cc(Cl)sc12 [Compound 380, [1-[(2'S,6'S,7S)-2-chloro-6'-methyl-spiro[4,5-dihydrothieno[2,3-c]pyran-7,4'-piperidine]-2'-yl]cyclopropyl]methanol]
- IC90 [1]: 50 to 500 nM

SMILES: C[C@H]1C[C@@]2(C[C@@H](c3cn(Cc4ncc(F)cc4F)nn3)N1)OC[C@@H](O)c1cc(Cl)sc12 [Compound 298]
- IC90 [2]: > 500 nM
- Multi-Tox Assay Max Activity (%) [3]: 95.0%

SMILES: C[C@H]1C[C@@]2(C[C@@H](c3cn(Cc4ccc(CO)cc4)nn3)N1)OCC(F)(F)c1cc(Cl)sc12 [Compound 225, (4-((4-((2S,4S,6S)-2'-chloro-4',4'-difluoro-2-methyl-4',5'-dihydrospiro[piperidine-4,7'-thieno[2,3-c]pyran]-6-yl)-1H-1,2,3-triazol-1-yl)methyl)phenyl)methanol]
- IC90 [2]: 50 to 500 nM
- Multi-Tox Assay Max Activity (%) [3]: 97.0%

SMILES: C[C@H]1C[C@@]2(C[C@@H](c3cn(Cc4ccc(O)nc4)nn3)N1)OCC(F)(F)c1cc(Cl)sc12 [Compound 316]
- IC90 [2]: > 500 nM
- Multi-Tox Assay Max Activity (%) [3]: 95.0%

SMILES: CCOc1ccc([C@@H]2C[C@]3(C[C@H](C)N2)OCCc2cc(Cl)sc23)cc1O (racemic) [Compound 107]
- IC90 [2]: < 50 nM
- Multi-Tox Assay Max Activity (%) [3]: 99.7%

SMILES: COc1nn(C)cc1[C@@H]1C[C@]2(C[C@H](C)N1)OCCc1cc(Cl)sc12 (racemic) [Compound 154]
- IC90 [2]: > 500 nM
- Multi-Tox Assay Max Activity (%) [3]: 94.0%

SMILES: Cc1nc(Cn2cc([C@@H]3C[C@]4(C[C@H](C)N3)OCC(F)(F)c3cc(Cl)sc34)nn2)oc1C [Compound 337]
- IC90 [2]: 50 to 500 nM

SMILES: C[C@H]1C[C@@]2(C[C@@H](c3cn(C)nn3)N1)OC[C@H](O)c1cc(Cl)sc12 [Compound 177, (2'S,4R,6'S,7S)-2-chloro-2'-methyl-6'-(1-methyltriazol-4-yl)spiro[4,5-dihydrothieno[2,3-c]pyran-7,4'-piperidine]-4-ol]
- IC90 [2]: < 50 nM
- Emax [3]: 100%

SMILES: C[C@H]1C[C@@]2(C[C@@H](c3cn(Cc4ccc(S(C)(=O)=O)cc4)nn3)N1)OCC(F)(F)c1cc(Cl)sc12 [Compound 355]
- IC90 [2]: 50 to 500 nM
- Multi-Tox Assay Max Activity (%) [3]: 98.0%

SMILES: COCCn1cc([C@@H]2C[C@]3(C[C@H](C)N2)OCCc2cc(Cl)sc23)cn1 (racemic) [Compound 90]
- IC90 [2]: < 50 nM
- Emax [3]: 100%

SMILES: C[C@H]1C[C@@]2(C[C@@H](c3cn(Cc4ccc(O)cc4)nn3)N1)OC[C@@H](O)c1cc(Cl)sc12 [Compound 259]
- IC90 [2]: 50 to 500 nM
- Multi-Tox Assay Max Activity (%) [3]: 100.0%

SMILES: C[C@@H]1C[C@]2(C[C@H](C)N1)OCC(O)c1cc(Cl)sc12 (mixture of isomers) [Compound 205, (2R,6S)-2-chloro-2',6'-dimethyl-spiro[4,5-dihydrothieno[2,3-c]pyran-7,4'-piperidine]-4-ol]
- IC90 (HEK293, read-out: Multi-Tox Assay IC90 (nM)): 50 to 500 nM
- Emax: 99.3%

SMILES: C[C@H]1C[C@@]2(C[C@@H](c3cn(Cc4ccccn4)nn3)N1)OC[C@@H](O)c1cc(Cl)sc12 [Compound 292]
- IC90 [2]: 50 to 500 nM

SMILES: CC1CC2(CC(CO)N1)OCCc1cc(Cl)sc12 (mixture of isomers) [Compound 210, (2-chloro-6'-methyl-spiro[4,5-dihydrothieno[2,3-c]pyran-7,4'-piperidine]-2'-yl)methanol]
- IC90 [2]: > 500 nM
- Emax [3]: 92.2%

SMILES: Cc1nc([C@@H]2C[C@]3(C[C@H](C)N2)OCCc2cc(Cl)sc23)oc1C (racemic) [Compound 144]
- IC90 [2]: > 500 nM
- Multi-Tox Assay Max Activity (%) [3]: 98.0%

SMILES: C[C@H]1C[C@@]2(C[C@@H](c3cn(CCc4ccncn4)nn3)N1)OCC(F)(F)c1cc(Cl)sc12 [Compound 305]
- IC90 [2]: 50 to 500 nM
- Multi-Tox Assay Max Activity (%) [3]: 100.0%

SMILES: C[C@H]1C[C@@]2(C[C@@H](c3cn(CC(O)c4ccccc4)nn3)N1)OC[C@@H](O)c1cc(Cl)sc12 (stereo partly drawn) [Compound 281]
- IC90 [2]: 50 to 500 nM

SMILES: C[C@H]1C[C@@]2(C[C@@H](c3cn(C[C@@H](O)CO)nn3)N1)OCC(F)(F)c1cc(Cl)sc12 [Compound 363]
- IC90 [1]: 50 to 500 nM

SMILES: COc1nccc([C@@H]2C[C@]3(C[C@H](C)N2)OCCc2cc(Cl)sc23)n1 (racemic) [Compound 110]
- IC90 [2]: 50 to 500 nM
- Multi-Tox Assay Max Activity (%) [3]: 99.2%

SMILES: COc1ccc(Cn2cc([C@@H]3C[C@]4(C[C@H](C)N3)OC[C@@H](O)c3cc(Cl)sc34)nn2)cc1 [Compound 295]
- IC90 [2]: 50 to 500 nM

SMILES: C[C@H]1C[C@@]2(C[C@@H](c3cn(CCC(C)(C)O)nn3)N1)OCC(F)(F)c1cc(Cl)sc12 [Compound 367]
- IC90 [1]: < 50 nM

SMILES: C[C@H]1C[C@@]2(C[C@@H](c3cn(C)nn3)N1)OCCc1sc(C(F)(F)F)cc12 [Compound 8, (2'S,4S,6'S)-2'-methyl-6'-(1-methyltriazol-4-yl)-2-(trifluoromethyl)spiro[6,7-dihydrothieno[3,2-c]pyran-4,4'-piperidine]]
- IC90 [2]: < 50 nM
- Multi-Tox Assay Max Activity (%) [3]: 100.0%

SMILES: CC(C)N1CC(Cn2cc([C@@H]3C[C@]4(C[C@H](C)N3)OC[C@@H](O)c3cc(Cl)sc34)nn2)CC1=O (stereo partly drawn) [Compound 287]
- IC90 [2]: 50 to 500 nM
- Multi-Tox Assay Max Activity (%) [3]: 96.0%

SMILES: C[C@H]1C[C@@]2(C[C@@H](c3cn(CCc4ccncn4)nn3)N1)OC[C@@H](O)c1cc(Cl)sc12 [Compound 262]
- IC90 [2]: 50 to 500 nM

SMILES: C#C[C@@H]1C[C@]2(C[C@H](C)N1)OCC(F)(F)c1cc(Cl)sc12 [Compound 223, (2'S,6'S,7S)-2-chloro-2'-ethynyl-4,4-difluoro-6'-methyl-spiro[5H-thieno[2,3-c]pyran-7,4'-piperidine]]
- IC90 [2]: > 500 nM
- Emax [3]: 93%

SMILES: COc1ccccc1-c1ncc([C@@H]2C[C@]3(C[C@H](C)N2)OCCc2cc(Cl)sc23)cn1 (racemic) [Compound 105]
- IC90 [2]: 50 to 500 nM
- Multi-Tox Assay Max Activity (%) [3]: 99.3%

SMILES: C[C@H]1C[C@@]2(C[C@@H](c3cccc(C#N)n3)N1)OCCc1cc(Cl)sc12 (racemic) [Compound 53]
- IC90 [2]: < 50 nM
- Multi-Tox Assay Max Activity (%) [3]: 99.3%

SMILES: C[C@H]1C[C@@]2(C[C@@H](c3cn(C)nn3)N1)OCCc1c2sc(C(F)(F)F)c1CO [Compound 17, [(2'S,6'S,7S)-2'-methyl-6'-(1-methyltriazol-4-yl)-2-(trifluoromethyl)spiro[4,5-dihydrothieno[2,3-c]pyran-7,4'-piperidine]-3-yl]methanol]
- IC90 [2]: < 50 nM
- Emax [3]: 100%

SMILES: Cc1cccc(OCC(O)Cn2cc([C@@H]3C[C@]4(C[C@H](C)N3)OCC(F)(F)c3cc(Cl)sc34)nn2)c1 (stereo partly drawn) [Compound 303]
- IC90 [2]: 50 to 500 nM

SMILES: Cc1cc(Cn2cc([C@@H]3C[C@]4(C[C@H](C)N3)OCC(F)(F)c3cc(Cl)sc34)nn2)ccn1 [Compound 336]
- IC90 [2]: 50 to 500 nM

SMILES: COc1ccc(C2CC3(CC(C)N2)OCCc2cc(Cl)sc23)nc1 (stereo not drawn) [Compound 34]
- IC90 [2]: < 50 nM

SMILES: C[C@H]1C[C@@]2(C[C@@H](c3cn(Cc4ccc(S(C)(=O)=O)cc4)nn3)N1)OC[C@@H](O)c1cc(Cl)sc12 [Compound 238]
- IC90 [2]: 50 to 500 nM
- Multi-Tox Assay Max Activity (%) [3]: 100%

SMILES: C[C@H]1C[C@@]2(C[C@@H](c3cn(Cc4cncs4)nn3)N1)OC[C@@H](O)c1cc(Cl)sc12 [Compound 248]
- IC90 [2]: 50 to 500 nM
- Multi-Tox Assay Max Activity (%) [3]: 101.0%

SMILES: C[C@H]1C[C@@]2(C[C@@H](c3cn(CC#N)nn3)N1)OCC(F)(F)c1cc(Cl)sc12 [Compound 369]
- IC90 [1]: > 500 nM
- Multi-Tox Assay Max Activity (%) (Multi-Tox Assay, APOL1 variant not stated in Table 46): 98.0%
- IC50 (Multi-Tox Assay, IP50 = IC50 for cell proliferation, APOL1 variant not stated in Table 46): 50 to 500 nM

SMILES: Cc1nc([C@@H]2C[C@]3(C[C@H](C)N2)OCCc2cc(Cl)sc23)c[nH]1 (racemic) [Compound 156]
- IC90 [2]: > 500 nM
- Multi-Tox Assay Max Activity (%) [3]: 93.0%

SMILES: C[C@H]1C[C@@]2(C[C@@H](c3cn(CC(F)F)nn3)N1)OCC(F)(F)c1cc(Cl)sc12 [Compound 324]
- IC90 [2]: > 500 nM
- Multi-Tox Assay Max Activity (%) [3]: 96.0%

SMILES: C[C@H]1C[C@@]2(C[C@@H](c3cn(Cc4ccccn4)nn3)N1)OCC(F)(F)c1cc(Cl)sc12 [Compound 332]
- IC90 [2]: 50 to 500 nM
- Multi-Tox Assay Max Activity (%) [3]: 96.0%

SMILES: C[C@H]1C[C@@]2(C[C@@H](c3ccnc(O)c3)N1)OCCc1cc(Cl)sc12 (racemic) [Compound 112]
- IC90 [2]: < 50 nM
- Multi-Tox Assay Max Activity (%) [3]: 100.0%

SMILES: C[C@H]1C[C@@]2(C[C@@H](c3cn(C)nn3)N1)OC[C@@H](O)c1cc(C(F)(F)F)sc12 [Compound 181, (2S,4S,4'S,6S)-2-methyl-6-(1-methyl-1H-1,2,3-triazol-4-yl)-2'-(trifluoromethyl)-4',5'-dihydrospiro[piperidine-4, 7'-thieno[2,3-c]pyran]-4'-ol]
- IC90 [2]: < 50 nM
- Emax [3]: 99.8%

SMILES: CCc1cc2c(s1)CCOC21CC(C)NC(c2cn(C)nn2)C1 (single isomer, unassigned) [Compound 4]
- IC90 [2]: < 50 nM
- Emax [3]: 99.3%

SMILES: C[C@H]1C[C@@]2(C[C@@H](c3ccnc(N(C)C)n3)N1)OCCc1cc(Cl)sc12 (racemic) [Compound 127]
- IC90 [2]: 50 to 500 nM
- Multi-Tox Assay Max Activity (%) [3]: 99.3%
